Values of other authors, collected in publication PMC8978187, “Feasibility, Biodistribution, and Preliminary Dosimetry in Peptide-Targeted Radionuclide Therapy of Diverse Adenocarcinomas Using ^177Lu-FAP-2286: First-in-Humans Results” (Journal of Nuclear Medicine, 2022).
Where two headings read alike, the source gives them in different places.

Columns and labels:
tumor = conditions: compared with ^177Lu-FAP-2286
Text: In our patient cohort, FAP expression was confirmed in these malignancies on PET/CT using ^68Ga-FAP-2286 or ^68Ga-FAPI-04.

[1] = patients
Text: These findings were further corroborated by dosimetric studies.

Row | Structure (SMILES) | tumor washout and tumor retention time (tumor) | bone marrow absorbed dose [1] [Gy/GBq] | effective half-life in the kidneys [1] [h] | effective half-life in the whole body [1] [h] | kidney absorbed dose [1] [Gy/GBq] | whole-body absorbed dose [1] [Gy/GBq] | kidney absorbed dose, range ([1]; range) | absorbed dose in bone metastases ([1]; reported by Kulkarni et al.) [Gy/GBq] | absorbed dose in bone metastases ([1]; reported by Violet et al.) [Gy/GBq] | absorbed dose in bone metastases, range ([1]; reported by Violet et al., range)
1 | N#C[C@@H]1CCCN1C(=O)CNC(=O)c1ccnc2ccc(OCCCN3CCN(C(=O)CN4CCN(CC(=O)O)CCN(CC(=O)O)CCN(CC(=O)O)CC4)CC3)cc12 [FAPI-02] | earlier tumor washout and a correspondingly shorter tumor retention time | – | – | – | – | – | – | – | – | –
2 | N#C[C@@H]1CC(F)(F)CN1C(=O)CNC(=O)c1ccnc2ccc(OCCCN3CCN(C(=O)CN4CCN(CC(=O)O)CCN(CC(=O)O)CCN(CC(=O)O)CC4)CC3)cc12 [FAPI-04] | earlier tumor washout and a correspondingly shorter tumor retention time | – | – | – | – | – | – | – | – | –
3 | O=C([O-])CN1CCN(CC(=O)[O-])CCN(CC(=O)NCC2CCC(C(=O)N[C@@H](Cc3ccc4ccccc4c3)C(=O)NCCCC[C@H](NC(=O)N[C@@H](CCC(=O)O)C(=O)O)C(=O)O)CC2)CCN(CC(=O)[O-])CC1.[177Lu+3] (some centres unmarked) [^177Lu-PSMA-617] | – | 0.03 | 42 | 40 | 0.99 | 0.04 | 0.45–1.6 Gy/GBq | 2.9 | 5.3 | 0.4–10.7 Gy/GBq
